In one assay the test system is PC-3 cells. The experiment in a line: Apoptosis induction in PC-3 cells (T1/2, time for 50% apoptotic death; cell viability / Cell Death Detection ELISA). The note with it: for change in potency in apoptosis induction on replacement of —SO2NH2 with —CONH2: carboxamide versus sulfonamide counterpart, FIG. 10A; for T½ (h) 50 μM: time required for eliciting 50% apoptotic death; for classification as fast-acting or slow-acting apoptosis inducer: prostate cancer cells, FIG. 8. In general terms: An ELISA detects its analyte on a solid surface through an enzyme-linked reagent.

Another assay has as its system LNCaP cells. The experiment in a line: Apoptosis induction in LNCaP cells. Particulars: LNCaP (p53+/+), compared with PC-3; data not shown. The class given is cell-based, human.
Another assay deals with DU-145 cells. The experiment in a line: Apoptosis induction in DU-145 cells. The note with it: DU-145 (p53−/−), compared with PC-3; data not shown. The format is cell-based, human.
The test system of assay [1] is Akt and ERK2 phosphorylation in PC-3 cells. The experiment in a line: Western blot of Akt and ERK2 phosphorylation status. The class given is cell-based, human. On the procedure: Immunoblotting For western blot analysis, cells were washed in phosphate-buffered saline (PBS), resuspended in sodium dodecyl sulfate (SDS) gel-loading buffer consisting of 50 mM Tris-HCl, pH 6.8, 100 mM dithiothreitol, 2% SDS, 0.1% bromophenol blue, and 10% glycerol, sonicated with an ultrasonic sonicator for 5 seconds (Virsonic 300, 4.5 output), and boiled for 5 minutes. After a brief centrifugation, equivalent protein amounts (60-100 μg) from the soluble fractions were resolved in 10% SDS-polyacrylamide gels on a Minigel apparatus and transferred to a nitrocellulose membrane in a semidry transfer cell. The transblotted membrane was washed twice with Tris-buffered saline (TBS) containing 0.05% Tween 20 (TBST). After blocking with TBS containing 5% nonfat milk for 60 minutes, the membrane was incubated with the appropriate primary antibody (anti-COX-2, anti-Akt, anti-P-^473Ser Akt, anti-ERK, and anti-phospho-ERK antibodies diluted 1:1,000; anti-actin monoclonal antibody, diluted 1:5,000) in TBS-1% nonfat milk at 4° C. for 12 hours and washed twice with TBST. The membranes were probed with goat anti-rabbit IgG-horseradish peroxidase conjugates (diluted 1:5,000) for 1 hour at room temperature and washed twice with TBST. Bands were visualized by enhanced chemiluminescence.
Immunoblotting. […]

The next assay relates to PGE2 production. The experiment in a line: Prostaglandin E2 (PGE2) immunoassay. The class given is cell-based, human. The note with it: 50 μM; 1F2, 3D9, 7D9 cells and parental PC-3 cells; data not shown. As for the experimental part: Culture medium was changed, and 24 hours later conditioned medium was collected to assay PGE2. Conditioned medium was centrifuged to remove particulate material, and then cells were collected by scraping to determine the protein concentration. PGE2 was assayed in 100 μL medium in triplicate according to the manufacturer's instruction (R&D Systems, Inc.; Minneapolis, Minn.). PGE2 data were normalized to protein content.

A further assay deals with T1, COX-2 (Homo sapiens, UniProt P35354).
T1 sequence (P35354 18-604): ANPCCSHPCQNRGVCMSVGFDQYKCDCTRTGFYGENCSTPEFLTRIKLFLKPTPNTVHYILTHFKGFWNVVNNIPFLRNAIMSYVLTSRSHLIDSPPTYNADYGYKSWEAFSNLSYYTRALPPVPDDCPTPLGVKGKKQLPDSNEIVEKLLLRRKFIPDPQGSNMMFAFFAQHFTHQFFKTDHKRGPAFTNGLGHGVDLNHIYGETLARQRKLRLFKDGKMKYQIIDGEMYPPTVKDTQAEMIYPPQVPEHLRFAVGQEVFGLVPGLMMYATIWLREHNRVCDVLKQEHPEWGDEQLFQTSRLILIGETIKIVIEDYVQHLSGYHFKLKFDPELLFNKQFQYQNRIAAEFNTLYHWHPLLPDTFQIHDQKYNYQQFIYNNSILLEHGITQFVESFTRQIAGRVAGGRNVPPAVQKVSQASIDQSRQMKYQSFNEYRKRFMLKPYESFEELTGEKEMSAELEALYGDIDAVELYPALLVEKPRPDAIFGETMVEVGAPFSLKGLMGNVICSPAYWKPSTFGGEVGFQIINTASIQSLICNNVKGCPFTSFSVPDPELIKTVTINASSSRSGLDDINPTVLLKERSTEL
The note with it: Table 1; read-out: IC50 (μM), COX-2 inhibition; cited from earlier work.

These results are taken from patent US20030236294A1, “Compounds and methods for inducing apoptosis in proliferating cells” (priority 2002, published 2003).

Regarding `Cc1ccc(C)c(-c2cc(C(F)(F)F)nn2-c2ccc(S(N)(=O)=O)cc2)c1` [compound 7a, 4-[5-(2,5-dimethylphenyl)-3-(trifluoromethyl)-1H-pyrazol-1-yl]benzenesulfonamide], the “time to 50% decrease in cell viability” value in the assay with PC-3 cells (50 μM, PC-3 cells) was “within an hour”.
Consider “4-[5-(2,4-Dimethylphenyl)-3-(trifluoromethyl)-1H-pyrazol-1-yl]benzene-carboxyamide [Compound 37b]”, for which, in the assay with PC-3 cells, the “change in potency in apoptosis induction on replacement of —SO2NH2 with —CONH2” value (“change in potency in apoptosis induction” below) is “no appreciable change”.
As for `Cc1ccc(-c2ccnn2-c2ccc(S(N)(=O)=O)cc2)cc1` [Compound 40b], the “activity in eliciting apoptosis in PC-3 cells (in words)” value with PC-3 cells (PC-3 cells) was “loss of high potency”.
For `Cc1ccc(-c2cc(C(F)(F)F)nn2-c2ccc(S(N)(=O)=O)cc2)cc1` [celecoxib, 4-[5-(4-methylphenyl)-3-(trifluoromethyl)-1H-pyrazol-1-yl]benzenesulfonamide, reference compound], the “susceptibility to apoptosis induction” value with LNCaP cells and in the assay with DU-145 cells was “susceptibility identical to that of PC-3 cells” in each case. In assay [1] (all four antisense COX-2 clones), the “phosphorylation of Akt and ERK2” value is “decreased phosphorylation of Akt and ERK2”. The “time to 50% decrease in cell viability” value in the assay with PC-3 cells (50 μM, PC-3 cells) stood at 2 h. In the assay on PC-3 cells (50 μM, Table 2), the “T½ (h) 50 μM” value was determined as 2 h.
Regarding `NS(=O)(=O)c1ccc(C2=C(c3ccc(Cl)c(Cl)c3)COC2=O)cc1` [Compound 49b, 3-(4-sulfamoylphenyl)-4-(3′,4′-dichlorophenyl)-2(5H)-furanone], the “T1/2 at 50 μM” value with PC-3 cells (50 μM, PC-3 cells) was 15 h.
As for `Cc1ccc(C#N)cc1` [Compound 16b], the “T½ (h) 50 μM” value in the assay on PC-3 cells (50 μM, Table 2) is reported as >100 h.
As for `NS(=O)(=O)c1ccc(-n2nc(C(F)(F)F)cc2-c2cc(Cl)ccc2Cl)cc1` [Example 5], in the assay with PC-3 cells (50 μM, Table 1), the “T½ (h) 50 μM” value is given as 3 h.
As for `COc1ccc(OC)c(C)c1` [Compound 23b], the “T½ (h) 50 μM” value in the assay on PC-3 cells (50 μM, Table 2) is >100 h.
As to “4-[5-(2,4-Dichlorophenyl)-3-(trifluoromethyl)-1H-pyrazol-1-yl]benzene-carboxyamide [Compound 31b]”, the “change in potency in apoptosis induction” value in the assay on PC-3 cells is listed as “no appreciable change”.
As to `CS(=O)(=O)Nc1ccc([N+](=O)[O-])cc1OC1CCCCC1` [NS398, reference compound], the PGE2 production result in the assay with PGE2 production is recorded as “reduced to the same extent”. Also, in the assay on PC-3 cells, the “classification as fast-acting or slow-acting apoptosis inducer” value is on record as “slow-acting apoptosis inducer”.
With `NS(=O)(=O)c1ccc(-n2nc(C(F)(F)F)cc2-c2ccccc2Cl)cc1` [Example 13], the “T½ (h) 50 μM” value in the assay on PC-3 cells (50 μM, Table 1) came to 4 h.
Take `Cc1cc(Cl)sc1Cl` [Compound 29b]: the “T½ (h) 50 μM” value in the assay on PC-3 cells (50 μM, Table 2) is listed as >100 h.
As for `CS(=O)(=O)c1ccc(C2=C(c3ccccc3)COC2=O)cc1` [Compound 47b, 3-(4′-methylsulfonylphenyl)-4-phenyl-2(5H)-furanone], in the assay with PC-3 cells (PC-3 cells), the “activity in eliciting apoptosis in PC-3 cells (in words)” value is “poor activity”.
The IC50 is the point on the concentration scale where inhibition reaches its midpoint. Take `Cc1ccc(C)c(-c2cc(C(F)(F)F)nn2-c2ccc(S(N)(=O)=O)cc2)c1` [Example 7]: the half-maximal inhibitory concentration (IC50) at COX-2 was > 100 µM. Further, in the assay with PC-3 cells (50 μM, Table 1), the “T½ (h) 50 μM” value is 1 h.
Take `COc1ccc(C)c(OC)c1` [Compound 22b]: in the assay on PC-3 cells (50 μM, Table 2), the “T½ (h) 50 μM” value was >100 h.
On the same count and under the same terms, with `Cc1cccs1` [Compound 27b] the figure was >100 h.
“4-[5-(2,5-Dichlorophenyl)-3-(trifluoromethyl)-1H-pyrazol-1-yl]benzene-carboxyamide [Compound 32b]”: in the assay with PC-3 cells, the “change in potency in apoptosis induction” value is “no appreciable change”.
Consider `Cc1ccc(C)c(C)c1` [Compound 21b], for which the “T½ (h) 50 μM” value with PC-3 cells (50 μM, Table 2) amounted to 2 h.
Regarding `Cc1ccc(F)cc1F` [Compound 4b], in the assay with PC-3 cells (50 μM, Table 2), the “T½ (h) 50 μM” value was >100 h.
Turning to `Fc1ccc(F)cc1` [Compound 5b], the “T½ (h) 50 μM” value with PC-3 cells (50 μM, Table 2) is recorded as >100 h.
For `Cc1ccco1` [Compound 26b], in the assay with PC-3 cells (50 μM, Table 2), the “T½ (h) 50 μM” value is given as >100 h.
On to `Cc1ccc(-c2cc(C(F)(F)F)nn2-c2ccc(S(N)(=O)=O)cc2)c(C)c1` [Example 9], for which the “T½ (h) 50 μM” value in the assay on PC-3 cells (50 μM, Table 1) turned out to be 2 h.
In the case of `NS(=O)(=O)c1ccc(-n2nc(C(F)(F)F)cc2-c2ccc(Cl)cc2)cc1` [1a, 4-[5-(4-Chlorophenyl)-3-(trifluoromethyl)-1H-pyrazol-1-yl]benzenesulfonamide], the “susceptibility to apoptosis induction” value with LNCaP cells and with DU-145 cells was “susceptibility identical to that of PC-3 cells” each time. Also, in assay [1] (PC-3 cells), the “phosphorylation status of Akt and ERK2” value was “concurrent dephosphorylation of Akt and ERK2”.
As for `NS(=O)(=O)c1ccc(-n2nc(C(F)(F)F)cc2-c2ccc(Cl)cc2Cl)cc1` [Example 12], in the assay with PC-3 cells (50 μM, Table 1), the “T½ (h) 50 μM” value came out at 2 h.
On to “4-[5-(3,4-Dichlorophenyl)-3-(trifluoromethyl)-1H-pyrazol-1-yl]benzene-carboxyamide [Compound 33b]”, for which the “change in potency in apoptosis induction” value with PC-3 cells is “no appreciable change”.
As for `CS(=O)(=O)c1ccc(C2=C(c3ccccc3)C(=O)OC2)cc1` [rofecoxib, reference compound], the PGE2 production result with PGE2 production is “reduced to the same extent”. Further, the “classification as fast-acting or slow-acting apoptosis inducer” value in the assay on PC-3 cells was “slow-acting apoptosis inducer”.
